# Test results published in patent US8377981B2, “CBI derivatives subject to reductive activation” (The Scripps Research Institute, priority 2007, dated 2013).
# Like-named read-outs stand apart in the source and are kept apart here.
# Legend:
# [1] = system: L1210 cell line (mouse leukemia); test: Cytotoxic activity, L1210 cell line; assay type: cell-based
# Description: (§1) The O-amino phenol derivatives bearing the N—O prodrug linkages and the various N-acyl substituents were assayed for cytotoxic activity alongside the parent drugs CBI-TMI (2) (Boger, D. L.; Yun, W. J. Am. Chem. Soc. 1994, 116, 7996) and mitomycin C (Boger, D. L.; et al. Bioorg. Med. Chem. Lett. 1991, 1, 115; Boger, D. L.; et al. Bioorg. Med. Chem. 1995, 3, 1429) as well as the two control standards 9 and 10 incapable of free phenol release. Three cell lines were examined including a standard L1210 cell line (mouse leukemia) as well as the mitomycin-sensitive (H460, expresses high levels of DT-Diaphorase) and resistant (H596, lacks DT-Diaphorase) non small cell lung cancer (NSCLC) cell lines, with results shown in the Table below.
# [2] = system: H460 (mitomycin-sensitive, expresses high levels of DT-Diaphorase) non small cell lung cancer (NSCLC) cell line; test: Cytotoxic activity, H460 cell line; assay type: cell-based
# Description: as §1
# [3] = system: H596 (mitomycin-resistant, lacks DT-Diaphorase) non small cell lung cancer (NSCLC) cell line; test: Cytotoxic activity, H596 cell line; assay type: cell-based
# Description: as §1
# [4] = system: L1210 murine leukemia implanted i.p. into DBA/2J mice; test: In vivo antitumor activity, L1210 i.p. in DBA/2J mice (30% DMSO in 0.1% glucose); parameters: species or system mouse; settings: for Surviving Mice: 365 days; for weight loss of treated animals: days 30-100, highest dosing
# From the text: The prodrug 8 was examined for in vivo efficacy alongside the parent drug 3 in a standard antitumor model enlisting L1210 murine leukemia implanted i.p. into DBA/2J mice. This model has been reported to respond well to the parent drugs of related compounds (Li, L. H.; et al. Invest. New Drugs 1991, 9, 137) and is a system that collaborators through the years have used to assess an extensive series of (+)-CBI-indole2 analogues. Although not published, these latter studies provided the foundation on which examination of 8 is based.
# With use the dose range (10-100 μg/kg) and the dosing schedule (administered three times i.p. on days 1, 5, and 9) found suitable for related parent drugs including (+)-CBI-indole2 (3) (Boger, D. L.; et al. Bioorg. Med. Chem. Lett. 1991, 1, 115; Boger, D. L.; et al. Bioorg. Med. Chem. 1995, 3, 1429), the prodrug 8 was examined as is shown in the Table below.
# DBA/2J mice were purchased from Jackson Laboratory (Bar Harbor, Me.) and housed in the animal facility at The Scripps Research Institute. L1210 tumor cells, originally isolated from DBA/2 mice, were cultured in DMEM medium containing 5% fetal calf serum. For tumor implantation, DBA/2J mice were i.p. injected with 1×10^5 L1210 cells at day 0.
# Compounds 3 and 8 were formulated with 30% DMSO plus 0.1% glucose solution. Treatment doses of drugs (0, 10, 30, 100 µg/kg wt. of animal) were i.p. injected consecutively on day 1, 5 and 9. The study was performed with six mice per group. Tumor growth in the peritoneal cavity was monitored daily and the death of animals was recorded. If necessary, weights of animals were measured once a week. To date this monitoring of the animals has lasted 365 days.
# [5] = system: L1210 murine leukemia implanted i.p. into DBA/2J mice; test: In vivo antitumor activity, second site (neat DMSO, terminated after 120 days); parameters: species or system mouse; settings: for Surviving Mice: still living after 120 days
# Description: Confirming these observations, an analogous antitumor assessment was carried out independently at a second site utilizing a slightly different and harsher protocol for drug administration (neat DMSO vs 30% DMSO in 0.1% glucose).
# In the above Table, the second column is the dose in mg/kg of body weight of the animal that is administered i.p. (into the intraperitoneal cavity) on days 1, 5, and 9. The surviving mice are the number of mice that are still living after 120 days and the experiment was then terminated.
# An analogous study with 10 mice per group was performed at the University of Kansas with the distinction that the compounds were administered in neat DMSO (0, 10, 30, 60, 100 µg/kg wt. of animal) and the study was terminated after 120 days.
# [6] = Chemical stability and reactivity of the N-acyl O-amino phenol derivatives; assay type: physicochemical; settings: for stability to acidic conditions: TFA-CH2Cl2, 4 N HCl-EtOAc
# [7] = Homo sapiens, NCI-H460, read-out: IC50 (nM) H460
# [8] = Homo sapiens, NCI-H596, natural enantiomer series, CBI-indole2 derivatives, read-out: IC50 (nM) H596
# [9] = 10 μg/kg i.p. days 1, 5, 9, neat DMSO
# [10] = 30 μg/kg i.p. days 1, 5, 9, neat DMSO
# [11] = 60 μg/kg i.p. days 1, 5, 9, neat DMSO
# [12] = 100 μg/kg i.p. days 1, 5, 9, neat DMSO
# [13] = Mus musculus, L1210, read-out: IC50 (nM) L1210, natural enantiomer series, CBI-TMI derivatives
# [14] = Homo sapiens, NCI-H596, read-out: IC50 (nM) H596
# [15] = unnatural enantiomer series, CBI-TMI derivatives, read-out: IC50 (nM) L1210
# [16] = unnatural enantiomer series, CBI-TMI derivatives, read-out: IC50 (nM) H460
# [17] = unnatural enantiomer series, CBI-TMI derivatives, read-out: IC50 (nM) H596
# [18] = unnatural enantiomer series, CBI-indole2 derivatives, read-out: IC50 (nM) L1210
# [19] = unnatural enantiomer series, CBI-indole2 derivatives, read-out: IC50 (nM) H460
# [20] = unnatural enantiomer series, CBI-indole2 derivatives, read-out: IC50 (nM) H596
smiles,measurement,setting,value
CC(C)(C)OC(=O)NOc1cc2c(c3ccccc13)[C@H](CCl)CN2C(=O)c1cc2cc(NC(=O)c3cc4ccccc4[nH]3)ccc2[nH]1 [Compound 8],IC50,"[1]; Mus musculus, L1210, read-out: IC50 (nM) L1210, natural enantiomer series, CBI-indole2 derivatives",0.05 nM
same,IC50,"[1]; Mus musculus, L1210, text range over L1210 and H460, natural enantiomer",0.03 to 0.2 nM
same,potency compared with CBI-indole2 (3),[1]; in each cell line examined,essentially equipotent
same,times more active than mitomycin C,[1]; natural enantiomer,100-1000 times
same,fold less active than the natural enantiomer,[1]; unnatural enantiomer of prodrug 8,10-100 fold
same,IC50,[2]; [7],0.3 nM
same,IC50,[3]; [8],4 nM
same,Mean Survival Period (MSP),"[4]; 10 μg/kg i.p. days 1, 5, 9",25 days
same,Treated/Control (MSP × 100),"[4]; 10 μg/kg i.p. days 1, 5, 9",120
same,Surviving Mice,"[4]; 10 μg/kg i.p. days 1, 5, 9",0/6
same,Mean Survival Period (MSP),"[4]; 30 μg/kg i.p. days 1, 5, 9",>145 days
same,Treated/Control (MSP × 100),"[4]; 30 μg/kg i.p. days 1, 5, 9",>730
same,Surviving Mice,"[4]; 30 μg/kg i.p. days 1, 5, 9",2/6
same,Mean Survival Period (MSP),"[4]; 100 μg/kg i.p. days 1, 5, 9",>310 days
same,Treated/Control (MSP × 100),"[4]; 100 μg/kg i.p. days 1, 5, 9",>1550
same,Surviving Mice,"[4]; 100 μg/kg i.p. days 1, 5, 9",5/6
same,weight loss of treated animals,[4],little or no weight loss
same,Mean Survival Period (MSP),[5]; [9],>46 days
same,Treated/Control (MSP × 100),[5]; [9],>210
same,Surviving Mice,[5]; 10 μg/kg,2/10
same,Mean Survival Period (MSP),[5]; [10],>51 days
same,Treated/Control (MSP × 100),[5]; [10],>232
same,Surviving Mice,[5]; 30 μg/kg,2/10
same,Mean Survival Period (MSP),[5]; [11],>93 days
same,Treated/Control (MSP × 100),[5]; [11],>425
same,Surviving Mice,[5]; 60 μg/kg,7/10
same,Mean Survival Period (MSP),[5]; [12],>63 days
same,Treated/Control (MSP × 100),[5]; [12],>288
same,Surviving Mice,[5]; 100 μg/kg,3/10
same,efficacy compared with free drug 3,"[5]; deaths due to the disease, tumor counts, tumor volume","comparable or superior in terms of reducing deaths due to the disease, tumor counts, and tumor volume"
same,toxicity of administration compared with free drug 3,"[5]; neat DMSO, 120 days",significantly less toxic than free drug 3
COc1cc2cc(C(=O)N3C[C@@H](CCl)c4c3cc(ON(C(C)=O)C(=O)OC(C)(C)C)c3ccccc43)[nH]c2c(OC)c1OC [Compound 6],IC50,[1]; [13],0.2 nM
same,IC50,[2]; [7],0.6 nM
same,IC50,[3]; [14],5 nM
same,stability to acidic conditions,[6],surprisingly robust to acidic conditions
COc1cc2cc(C(=O)N3C[C@@H](CCl)c4c3cc(ONC(C)=O)c3ccccc43)[nH]c2c(OC)c1OC [Compound 5],IC50,[1]; [13],0.3 nM
same,IC50,[2]; [7],0.7 nM
same,IC50,[3]; [14],7 nM
same,stability on long term storage,[6],withstanding even long term storage effectively
"COc1cc2cc(C(=O)N3C[C@@H](CCl)c4c3cc(O)c3ccccc43)[nH]c2c(OC)c1OC [Compound 2, seco-CBI-TMI, reference compound]",IC50,[1]; [13],0.04 nM
same,IC50,[1]; [15],5 nM
same,IC50,[2]; [7],0.5 nM
same,IC50,[2]; [16],50 nM
same,fold lower sensitivity of H596 than H460,[3]; H596 versus H460,10 fold
same,IC50,[3]; [14],5 nM
same,IC50,[3]; [17],300 nM
"O=C(Nc1ccc2[nH]c(C(=O)N3C[C@@H](CCl)c4c3cc(O)c3ccccc43)cc2c1)c1cc2ccccc2[nH]1 [Compound 3, seco-CBI-indole2, reference compound]",IC50,"[1]; Mus musculus, L1210, natural enantiomer series, CBI-indole2 derivatives, read-out: IC50 (nM) L1210",0.03 nM
same,IC50,[1]; [18],0.7 nM
same,IC50,"[2]; Homo sapiens, NCI-H460, natural enantiomer series, CBI-indole2 derivatives, read-out: IC50 (nM) H460",0.2 nM
same,IC50,[2]; [19],6 nM
same,IC50,[3]; [8],2 nM
same,IC50,[3]; [20],40 nM
same,Mean Survival Period (MSP),"[4]; 10 μg/kg i.p. days 1, 5, 9",34 days
same,Treated/Control (MSP × 100),"[4]; 10 μg/kg i.p. days 1, 5, 9",170
same,Surviving Mice,"[4]; 10 μg/kg i.p. days 1, 5, 9",0/6
same,Mean Survival Period (MSP),"[4]; 30 μg/kg i.p. days 1, 5, 9",>115 days
same,Treated/Control (MSP × 100),"[4]; 30 μg/kg i.p. days 1, 5, 9",>580
same,Surviving Mice,"[4]; 30 μg/kg i.p. days 1, 5, 9",1/6
same,Mean Survival Period (MSP),"[4]; 100 μg/kg i.p. days 1, 5, 9",125 days
same,Treated/Control (MSP × 100),"[4]; 100 μg/kg i.p. days 1, 5, 9",625
same,Surviving Mice,"[4]; 100 μg/kg i.p. days 1, 5, 9",0/6
same,weight loss of treated animals,[4],weight loss that was evident
same,fate of surviving mice at day 90,[4]; prolonged management beyond day 90,eventually expired due to drug administration related complications
same,Mean Survival Period (MSP),[5]; [9],>60 days
same,Treated/Control (MSP × 100),[5]; [9],>271
same,Surviving Mice,[5]; 10 μg/kg,3/10
same,Mean Survival Period (MSP),[5]; [10],>65 days
same,Treated/Control (MSP × 100),[5]; [10],>295
same,Surviving Mice,[5]; 30 μg/kg,3/10
same,Mean Survival Period (MSP),[5]; [11],>71 days
same,Treated/Control (MSP × 100),[5]; [11],>324
same,Surviving Mice,[5]; 60 μg/kg,3/10
same,Mean Survival Period (MSP),[5]; [12],11 days
same,Treated/Control (MSP × 100),[5]; [12],52
same,Surviving Mice,[5]; 100 μg/kg,0/10
"CO[C@@]12[C@H](COC(N)=O)C3=C(C(=O)C(C)=C(N)C3=O)N1C[C@@H]1N[C@@H]12 [mitomycin C, reference compound]",IC50,"[1]; natural enantiomer series, CBI-TMI derivatives, read-out: IC50 (nM) L1210",40 nM
same,IC50,"[1]; natural enantiomer series, CBI-indole2 derivatives, read-out: IC50 (nM) L1210",40 nM
same,IC50,"[1]; text range over L1210 and H460, read-out: IC50",20 to 40 nM
same,IC50,[1]; [15],40 nM
same,IC50,[1]; [18],40 nM
same,IC50,"[2]; natural enantiomer series, CBI-TMI derivatives, read-out: IC50 (nM) H460",20 nM
same,IC50,"[2]; natural enantiomer series, CBI-indole2 derivatives, read-out: IC50 (nM) H460",20 nM
same,IC50,[2]; [16],20 nM
same,IC50,[2]; [19],20 nM
same,IC50,"[3]; mitomycin-resistant H596 cell line, read-out: IC50",5000 nM
same,IC50,"[3]; natural enantiomer series, CBI-TMI derivatives, read-out: IC50 (nM) H596",5000 nM
same,IC50,"[3]; natural enantiomer series, CBI-indole2 derivatives, read-out: IC50 (nM) H596",5000 nM
same,IC50,[3]; [17],5000 nM
same,IC50,[3]; [20],5000 nM
COc1cc2cc(C(=O)N3CC(CCl)c4c3cc(ON3C(=O)c5ccccc5C3=O)c3ccccc43)[nH]c2c(OC)c1OC (stereo not shown) [Compound 7],IC50,[1]; [15],60 nM
same,IC50,[2]; [16],600 nM
same,IC50,[3]; [17],6000 nM
COc1cc2cc(C(=O)N3C[C@@H](CCl)c4c3cc(ON3C(=O)c5ccccc5C3=O)c3ccccc43)[nH]c2c(OC)c1OC [Compound 7],IC50,[1]; [13],0.06 nM
same,IC50,[2]; [7],0.5 nM
same,IC50,[3]; [14],5 nM
same,stability to acidic conditions,[6],surprisingly robust to acidic conditions
same,stability on long term storage,[6],noticeably deteriorating over time
